Ends that are not written are not given here.
Legend:
[1] = Peptide release profile from 2% alginate hydrogel (fluorescence spectroscopy); type: physicochemical
Procedure: To study the peptide release profile, P2 was labeled with FITC. The release of peptide contained into the 2% alginate hydrogel (50 μg/ml) was quantified by fluorescence spectroscopy. First, alginate hydrogels were washed with culture media to remove the excess of CaCl2. Then, 750 μl of cell culture media were added onto peptide loaded alginate hydrogel. The samples were incubated at 37° C. and 5% CO2 for 21 days and cell culture media was changed twice a week. At prefixed time points (24 h, 4 d, 7 d, 11 d, 14 d, 18 d and 21 d), supernatants were collected and analyzed by fluorescence spectroscopy (λ ex 490 nm and λ em 525 nm) to determine the amount of peptide released to the media. The amount of peptide released during the washing step was also measured. The experiment was performed three times, and each sample analyzed in triplicate.
Relative fluorescence units were correlated with the amount of peptide released using a linear standard curve for each time point.

[2] = tested on: MC3T3-E1 cells; assay: Cell viability: LDH activity in culture media, cells on alginate hydrogels; type: cell-based, mouse; settings: 50 μg/ml in alginate gel
Procedure: (§1) The mouse osteoblastic cell line MC3T3-E1 (DSMZ, Braunschweig, Germany) was maintained as previously described (Tiainen H et al., 2011). Before seeding, 24-well culture plates containing crosslinked alginate hydrogels were washed with 750 μl of culture media to remove the excess of CaCl2. After evaluation of the efficiency of cell adhesion on 2% alginate gel using different cell densities, for the final experiments, cells were seeded at a density of 100 000 cells/well. Media was refreshed twice a week. Culture media was collected 24 h after seeding to study cell viability. Cells were harvested at days 14 and 21 to analyze gene expression of adhesion and osteogenic-related markers using real-time RT-PCR. Cultures were routinely observed using light microscopy (Leica DMIRB, Leica Microsystems Wetzlar GmbH, Germany).
The LDH activity determined in the culture media after 24 h was taken as an indicator of membrane leakage or cell lysis. The activity of the cytosolic enzyme was estimated as previously described (Rupert M et al., 2011).

[3] = tested on: MC3T3-E1 cells; assay: Gene expression of adhesion and osteoblast markers by real-time RT-PCR, cells on alginate hydrogels; type: cell-based, mouse; settings: 50 μg/ml in 2% alginate gel
Procedure: as §1
Total RNA was isolated using Tripure® (Roche Diagnostics, Mannheim, Germany), according to the manufacturer's protocol. Total RNA was quantified at 260 nm using a Nanodrop spectrophotometer (NanoDrop Technologies, Wilmington, Del., USA).
The same amount of RNA (350 ng) was reverse transcribed to cDNA using high capacity RNA-to-cDNA kit (Applied Biosystems, Foster City, Calif.), according to the protocol of the supplier. Aliquots of each cDNA were frozen (−20° C.) until the PCR reactions were carried out.
Real-time PCR was performed in the Lightcycler 480® (Roche Diagnostics, Mannheim, Germany) using SYBR green detection. Real-time PCR was done for two reference genes (18SrRNA and glyceraldehyde-3-phosphate dehydrogenase (GAPDH)) and ten target genes (integrin alpha 8 (Itga8), integrin beta1 (Itgb1), integrin beta 3 (Itgb3), fibronectin 1 (Fn1), bone morphogenetic protein 2 (Bmp2), collagen type I (Coll-I), bone sialoprotein (Bsp), alkaline phosphatase (Alp), osteocalcin (Oc) and osteopontin (Opn)).
The primer sequences are detailed in Table 2. Reaction conditions and relative quantification have been done as previously described (Tiainen H et al., 2011).

[4] = Peptide 2 release profile from TiO2 scaffolds coated with 2% alginate gel (UV-Vis); type: physicochemical; settings: P2-alginate-coated scaffolds, distilled water, 37° C.
Procedure: In order to mimic cell culture conditions, the samples were agitated on an orbital shaker at 200 rpm (IKA® Schüttler MTS 2, Germany) for 6 h at 37° C. and in humidity conditions (using a distilled water container). Then, samples were maintained at 37° C. in a humidified atmosphere for up to 21 days. At prefixed time points (2d, 5d, 7d, 9d, 12d, 14d, 16d, 19d and 21d), distilled water was collected and fresh distilled water was added into each well. Sample absorbances were analyzed by UV-Vis spectrophotometer (PerkinElmer® Lambda 25 UV/Vis Systems, USA) at a wavelength of 206 nm to determine the amount of peptide released. In parallel, TiO2 scaffolds coated with one layer of 2% alginate gel were used as control to subtract absorbance values obtained from degradation products from alginate.
Relative absorbance units were correlated with the amount of peptide released using a linear standard curve for each time point and the cumulative P2 released was then calculated. The experiment was performed in triplicate.

[5] = tested on: primary human osteoblasts; assay: Cytotoxicity assay: LDH activity in culture medium; type: cell-based; settings: for LDH activity compared to alginate-coated scaffolds without SIM: 14-day period
Procedure: Cells from passages 7-9 were seeded on scaffolds at a density of 400.000 cells/ml. […] Scaffolds soaked with culture medium were placed in 48-well culture plates. […] The culture medium was replaced every other day. Collected medium was saved for use in cytotoxicity, alkaline phosphatase (ALP) activity and protein expression assays.

For PLVPSQPLVPSQPLVPSQPQPPLPP [Peptide P2], the “burst release of the peptide during the first 24 h of incubation” value ([1]; P2 FITC-labeled, 50 μg/ml in 2% alginate hydrogel, culture media, 37° C.) was 54.67%, the “total peptide theoretically contained in the hydrogel not released after 21 days” value ([1]; P2 FITC-labeled, 2% alginate hydrogel, 21 days) was 5.6% and the “peptide slowly released up to 11 days” value ([1]; P2 FITC-labeled, 2% alginate hydrogel, after the first 24 h, up to 11 days) was 25.8%. The “loaded peptide released during the washing step” value ([1]; washing of alginate hydrogels with culture media to remove excess CaCl2) was 12.7%, the “cell viability compared to EMD” value ([2]; after 24 h) was “significantly increased” and the “Expression of Opn compared to control” value ([3]; 14 days) was “decreased significantly”. For the same compound, the “Fn1 mRNA compared to control” value ([3]; 14 days) was “decreased significantly”, the “Itgb1 mRNA levels compared to control” value ([3]; 14 days) was “significantly decreased” and the “Itgb3 mRNA compared to control” value ([3]; 14 days) was “decreased significantly”. For the same compound, the “ALP mRNA levels compared to control” value ([3]; 21 days) was “significantly decreased”, the “Bmp2 relative mRNA levels compared to EMD” value ([3]; 21 days) was “decreased” and the “Itgb3 and Fn1 mRNA compared to control” value ([3]; 21 days) was “no differences”. The “amount of peptide released after 5 days” value [4] was 9.4 % of the cumulative amount rel and the “burst release of the peptide during the first 2 days of incubation” value [4] was 42.8 % of the cumulative amount of P2 released after 21 days.
In the case of “PHQPMQPQPPVHPMQPLPPQPPLPP (Synthetic biomineralizing peptide) [Peptide P6]”, the “ALP mRNA levels compared to control” value ([3]; 14 days) is reported as “significantly decreased”, the “Expression of Opn compared to control” value ([3]; 14 days) is reported as “decreased significantly” and the “Fn1 mRNA compared to control” value ([3]; 14 days) is reported as “decreased significantly”. For the same compound, the “Itgb1 mRNA levels compared to control” value ([3]; 14 days) was “significantly decreased”, the “Itgb3 mRNA compared to control” value ([3]; 14 days) was “decreased significantly” and the “Bmp2 relative mRNA levels” value ([3]; 14 days of treatment) was “increased significantly”. For the same compound, the “ALP mRNA levels compared to control” value ([3]; 21 days) was “significantly decreased”, the “Itgb1 mRNA levels compared to EMD” value ([3]; 21 days) was “reduced significantly” and the “Itgb3 and Fn1 mRNA compared to control” value ([3]; 21 days) was “no differences”. The “Oc mRNA levels compared to control” value ([3]; 21 days) was “increased”.
In the case of “PLVPSSPLVPCCPLVPCCPSPPLPP (Synthetic biomineralizing peptide) [Peptide P5]”, the “toxic effects compared to EMD and to untreated alginate gel” value ([2]; 24 h) is reported as “significantly lower”, the “Oc mRNA levels compared to control” value ([3]; 21 days) is reported as “increased” and the “Expression of Itga8 compared to control” value ([3]; "after days of culture" (number not given)) is reported as “increased”. The Itga8 expression ([3]; after 21 days of treatment) was “markedly”.
With `CCC(C)(C)C(=O)O[C@H]1C[C@@H](C)C=C2C=C[C@H](C)[C@H](CC[C@@H]3C[C@@H](O)CC(=O)O3)[C@H]21` [SIM, simvastatin] the “LDH activity compared to alginate-coated scaffolds without SIM” value ([5]; scaffolds with 10 nM SIM) was “Neither of the SIM concentrations caused a significant increase”, the “LDH activity compared to alginate-coated scaffolds without SIM” value ([5]; scaffolds with 10 μM SIM) was “Neither of the SIM concentrations caused a significant increase” and the “LDH activity, scaffolds with 10 μM SIM compared to scaffolds with 10 nM SIM” value ([5]; throughout the 14-day period) was “higher”.
